In patent publication US20230212251A1, “PEPTIDES DERIVED FROM SORTILIN” (UNIVERSITE DE LIMOGES, priority 2019, published 2023):
Read-outs that look alike come from different tables or passages of the source.

Experiments:
Type in all cases: cell-based
cells = experiment: Cell penetration test via western blot; conditions: 0 to 500 nM in complete culture medium, 24 hours' treatment
Procedure: 3. Extraction of the proteins under denaturing conditions Extraction of the whole proteins is carried out directly on the cell layers, after eliminating the supernatants and rinsing the cells in PBS 1×, or even on cell pellets previously stored at −80° C. It is carried out by incubating the cells with the Laemmli lysis buffer (62.5 mM Tris-HCl ref: 11814273001 ROCHE, pH 6.8, 2% SDS ref: L-4509, Sigma-Aldrich, 25% glycerol ref: G5516, Sigma-Aldrich) made up with 1% (v/v) protease inhibitor cocktail (ref: P8340-1ML, Sigma-Aldrich) and 1% (v/v) phosphatase inhibitor cocktail (ref: P0044-1ML, Sigma-Aldrich), in the proportions […] of buffer for 1.10^6 cells for 30 min over ice. In the case of extraction on the cell layer, a scraper (ref: 179693PK, Nunc, ThermoFisher) is used to collect the cells in the lysis buffer. Lysis is then completed by ultrasound parametered at 60 Hz, amplitude 2 s, for 1 minute (ref: SONIVCX-130-220, VWR). The lysates are then centrifuged at 17,000×g (ref: 75002442, Sorvall, ThermoFisher) for 20 min at 4° C., the supernatant containing the proteins is transferred to a sterile 1.5 mL tube (ref: 0030120086, Eppendorf), and the proteins are assayed by the Bradford method.
5. […] The concentration of the polyacrylamide gels varies from 8 to 15% as a function of the molecular weight of the proteins to be separated and analyzed. […]

cell nuclei = experiment: Subcellular distribution by indirect immunofluorescence; conditions: 2D and 3D confocal imaging
Procedure: The cells are seeded on a 24-well plate on 14 mm diameter glass slides. After each treatment condition, the cells are fixed, either with the complete medium containing paraformaldehyde (PFA) at 3.7% for 20 min at 4° C., or with methanol at −20° C. for 5 min. With methanol the fixation is carried out by dehydration (denaturing of the proteins), while with the aldehydes (formaldehyde) the 3D structure of the protein is preserved (fixing by bridging). The phosphorylations are analyzed after fixing with PFA. After fixing, the cell layer is washed 3 times for 5 minutes with […] PBS. In the case of fixing with PFA, the cells are permeabilized with Triton X-100 at 0.1% in PBS for 10 min at 4° C., then washed again. With regard to fixing with methanol, this confers the advantage of fixing and permeabilizing the cells at the same time. […] Starting from the fixing stage, all the solutions are filtered beforehand over a 0.2 μm filter in order to eliminate the fluorescence artefacts and the background noise. […] Then, three washes of 5 min in PBS are carried out, before incubation of the secondary antibody coupled with an Alexa fluor 488® (green fluorescence) (Table 4) for 1 hour at ambient temperature in the PBS-BSA solution. […]

A549 cell line = experiment: Cell survival measured by XTT (Cell Proliferation Kit II); conditions: XTT dehydrogenase activity, read-out: CI50 (concentration giving 50% inhibition of cell activity)
Procedure: The antineoplastic effect of the synthetic peptide, comprising Tat and a V5 tag of sequence SEQ ID NO 7 was tested on the A549 cell line (adenocarcinoma line having no mutation on the EDFR). A concentration range (0 to 10 μM) of the synthetic peptide of sequence SEQ ID NO 7 according to the invention was incubated for 24, 48 and 72 hours in the cell medium and the dehydrogenase activity thereof (proxy for viability) was measured (Cell Proliferation Kit II (XTT)-Roche) at the end of each incubation, i.e. at 24, 48 and 72 hours. Analysis of the graph representing the activity as a function of the log of the synthetic peptide concentration made it possible to establish CI50 values corresponding to the concentrations for which the peptide results in 50% inhibition of cell activity. These latter are respectively equal to 1.42, 1.52 and 0.57 μM for incubation times of 24, 48 and 72 hours.

[1] = test system: human fibroblasts (non-cancerous cells); experiment: Pro-apoptotic effect, real-time IncuCyte Zoom imaging; conditions: peptide 1 μM, 96 hours real time, versus control
Procedure: (§1) In order to study cell death by apoptosis, the cells are seeded at a concentration of 2000 cells per well in 100 μL of culture medium, in 96-well plates. 24 hours later, the cell medium is removed, then the cells are rinsed once with sterile PBS 1× before adding the culture medium containing the different treatments, including the peptide according to the invention at […], and the reagents necessary for analysis of cell death. These latter are: IncuCyte® Caspase-3/7 Green Reagent (ref: 4440; EssenBio) diluted to 1:1000 in the culture medium; IncuCyte® Annexin V Green Reagent (ref: 4642; EssenBio) diluted to 1:200 diluted in the culture medium. Image acquisition is then carried out by positioning the plates in the IncuCyte Zoom® system (Ref: EssenBio) for 96 hours. Four images per well are then obtained, in high definition, every two hours, with the ×10 objective and the phase-contrast and green channels. These acquisitions are carried out automatically and non-invasively. The data are processed automatically with the IncuCyte Zoom® Live-Cell Analysis System (ref: EssenBio).
(§2) The pro-apoptotic effect of the peptide of sequence SEQ ID NO 7 at the concentration of 1 μM was measured in real time using the IncuCyte Zoom® system for 96 hours on the A549 line, on human fibroblasts (non-cancerous cells), as well as on two lines of adenocarcinomas H3255 and H1975, respectively presenting mutations of EGFR that are sensitive (L858R) and resistant (L858R/T790M) to the tyrosine kinase activity receptor inhibitors (TKI) used in the clinic via activation of two markers of apoptosis, namely annexin V and caspases 3 and 7. […] In fact, the levels of expression of these markers are identical under the conditions treated with the peptide and the control conditions. The peptide could therefore have a specific toxicity to cancer cells.

[2] = test system: H1975 adenocarcinoma line (EGFR L858R/T790M); experiment: as above; conditions: H1975, peptide 1 μM, 96 hours real time
Procedure: as §1, §2

A549 line = experiment: as above; conditions: A549, peptide 1 μM, 96 hours real time
Procedure: as §1, §2

[3] = test system: H3255 adenocarcinoma line (EGFR L858R); experiment: as above; conditions: H3255, peptide 1 μM, 96 hours real time
Procedure: as §1, §2

## GRKKRRQRRRPPQVLIVKKYVCGGRFLVHRYSVLQQHAEANGVDGVDALDTASHTNKSGYHDDSDEDLLEGKPIPNPLLGLDST [SEQ ID NO 7]
cells
  quantity of intracellular peptide detected in the cell lysate (anti-V5 western blot): dose-dependent peptide penetration
Cell nuclei
  subcellular distribution of the peptide (anti-V5 immunofluorescence, DAPI): punctiform nuclear distribution
A549 cell line; A549, 24 hours incubation
  IC50: 1.42 µM
A549 cell line; A549, 48 hours incubation
  IC50: 1.52 µM
A549 cell line; A549, 72 hours incubation
  IC50: 0.57 µM
[1]
  activation of annexin V (marker of apoptosis): does not seem to lead to activation
  activation of caspases 3 and 7 (marker of apoptosis): does not seem to lead to activation
[2]
  level of annexin V (marker of apoptosis): increase
  level of caspases 3 and 7 (marker of apoptosis): increase
A549 line
  level of annexin V (marker of apoptosis): increase
  level of caspases 3 and 7 (marker of apoptosis): increase
[3]
  level of annexin V (marker of apoptosis): increase
  level of caspases 3 and 7 (marker of apoptosis): increase
